Assay results published in ChEMBL document CHEMBL1201862, “PubChem BioAssay data set” (2004).
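Cultured in 96-well plates, cells were exposed to test compound for 48 hours across five concentrations. The concentration for 50% growth inhibition is given as GI50.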 Calls of active or inactive are those of the source. No stated cut-off is given here; in the data, active = GI50 up to about 1.1 µM and inactive = higher. Numbered stars: 1 amine (or outer) side, 2 acyl side, 3 side chain; on linkers, the order of the positions; unused ones are H or OH. Bridge positions count the residues as written; N and C are the ends. Square brackets hold non-standard residues; d marks the D form. Peptide text beside a SMILES is read from it. I, II: the chains in the order shown. * marks the point of attachment. Actinocin(9to1) = Cc1c2oc3c(C)ccc(C(=O)[*:1])c3nc-2c(C(=O)[*:2])c(N)c1=O; NMeH = CN[CH](Cc1c[nH]cn1)C(=O)O; Boc = CC(C)(C)OC(=O)*; OBn = c1ccc(CO*)cc1; Sar = CNCC(=O)O

Columns and labels:
Assay in all cases: NCI tumour cell line growth inhibition, 48 h
Hs-578T = test system: Hs-578T
HT-29 = test system: HT-29
KM12 = test system: KM12
NCI-H522 = test system: NCI-H522
OVCAR-4 = test system: OVCAR-4
NCI-H23 = test system: NCI-H23
SF-268 = test system: SF-268
NCI/ADR-RES = test system: NCI/ADR-RES
BT-549 = test system: BT-549
SF-539 = test system: SF-539
SK-MEL-28 = test system: SK-MEL-28
RXF 393 = test system: RXF 393
MDA-MB-435 = test system: MDA-MB-435
SNB-19 = test system: SNB-19
SR = test system: SR
OVCAR-3 = test system: OVCAR-3
MOLT-4 = test system: MOLT-4
MDA-N = test system: MDA-N
PC-3 = test system: PC-3
HOP-62 = test system: HOP-62

SMILES	GI50 (Hs-578T)	GI50 (HT-29)	GI50 (KM12)	GI50 (NCI-H522)	GI50 (OVCAR-4)	GI50 (NCI-H23)	GI50 (SF-268)	GI50 (NCI/ADR-RES)	GI50 (BT-549)	GI50 (SF-539)	GI50 (SK-MEL-28)	GI50 (RXF 393)	GI50 (MDA-MB-435)	GI50 (SNB-19)	GI50 (SR)	GI50 (OVCAR-3)	GI50 (MOLT-4)	GI50 (MDA-N)	GI50 (PC-3)	GI50 (HOP-62)
Cc1c2oc3c(C)ccc(C(=O)NC4C(=O)NC(C(C)C)C(=O)N5CCCC5C(=O)N(C)CC(=O)N(C)C(Cc5cnc[nH]5)C(=O)OC4C)c3nc-2c(C(=O)NC2C(=O)NC(C(C)C)C(=O)N3CCCC3C(=O)N(C)CC(=O)N(C)C(Cc3cnc[nH]3)C(=O)OC2C)c(N)c1=O (centres undefined) (I: TVP[Sar][NMeH] / II: TVP[Sar][NMeH]; ester I:1-I:C, II:1-II:C; linker I:N-II:N via Actinocin(9to1); configuration not given here)	1 µM (active)	31.8 µM (inactive)	62.1 µM (inactive)	16.8 µM (inactive)	> 100 µM (inactive)	65.5 µM (inactive)	67.6 µM (inactive)	> 100 µM (inactive)	> 100 µM (inactive)	28.8 µM (inactive)	39.4 µM (inactive)	14.7 µM (inactive)	63.4 µM (inactive)	45 µM (inactive)	65.3 µM (inactive)	> 100 µM (inactive)	37.3 µM (inactive)	25.2 µM (inactive)	55 µM (inactive)	43.5 µM (inactive)
COc1cc2c(cc1OC)C13CC[N+]4(C)CC5=CCOC6CC(=O)N2C1C6C5CC34[O-] (centres undefined)	> 100 µM (inactive)	–	> 100 µM (inactive)	> 100 µM (inactive)	> 100 µM (inactive)	> 100 µM (inactive)	> 100 µM (inactive)	> 100 µM (inactive)	> 100 µM (inactive)	> 100 µM (inactive)	> 100 µM (inactive)	> 100 µM (inactive)	> 100 µM (inactive)	> 100 µM (inactive)	> 100 µM (inactive)	> 100 µM (inactive)	> 100 µM (inactive)	> 100 µM (inactive)	> 100 µM (inactive)	> 100 µM (inactive)
O=C(CCn1ccnc1[N+](=O)[O-])NCCCn1ccnc1[N+](=O)[O-]	> 100 µM (inactive)	> 100 µM (inactive)	> 100 µM (inactive)	> 100 µM (inactive)	> 100 µM (inactive)	> 100 µM (inactive)	> 100 µM (inactive)	> 100 µM (inactive)	> 100 µM (inactive)	> 100 µM (inactive)	> 100 µM (inactive)	> 100 µM (inactive)	> 100 µM (inactive)	–	> 100 µM (inactive)	> 100 µM (inactive)	> 100 µM (inactive)	> 100 µM (inactive)	> 100 µM (inactive)	> 100 µM (inactive)
Cc1sc2c(c1C)/C(=N\O)c1cccn1-2	16.9 µM (inactive)	30.2 µM (inactive)	31.6 µM (inactive)	19 µM (inactive)	44.9 µM (inactive)	–	34 µM (inactive)	53.3 µM (inactive)	42.1 µM (inactive)	–	93.3 µM (inactive)	23.2 µM (inactive)	54 µM (inactive)	23.3 µM (inactive)	22.6 µM (inactive)	42.9 µM (inactive)	17.3 µM (inactive)	40.6 µM (inactive)	29.9 µM (inactive)	25.3 µM (inactive)
CC1(C)OC(=S)N(c2ccccc2)C12C=Cc1ccccc1O2 (centres undefined)	> 100 µM (inactive)	56.6 µM (inactive)	35 µM (inactive)	20.2 µM (inactive)	33.4 µM (inactive)	41 µM (inactive)	> 100 µM (inactive)	53.5 µM (inactive)	79.3 µM (inactive)	–	> 100 µM (inactive)	> 100 µM (inactive)	36.4 µM (inactive)	> 100 µM (inactive)	4.26 µM (inactive)	> 100 µM (inactive)	22.5 µM (inactive)	39.5 µM (inactive)	41.7 µM (inactive)	> 100 µM (inactive)
CC(NC(=O)Cc1ccccc1)NC(=O)C(C)C(=O)Nc1ccccc1 (centres undefined)	23.7 µM (inactive)	> 100 µM (inactive)	> 100 µM (inactive)	23.1 µM (inactive)	> 100 µM (inactive)	> 100 µM (inactive)	36.6 µM (inactive)	> 100 µM (inactive)	43.5 µM (inactive)	> 100 µM (inactive)	–	47.1 µM (inactive)	> 100 µM (inactive)	24 µM (inactive)	> 100 µM (inactive)	–	> 100 µM (inactive)	> 100 µM (inactive)	> 100 µM (inactive)	–
COc1cc2ncnc(NS(=O)(=O)c3cc4ccccc4s3)c2cc1OC	49.9 µM (inactive)	> 100 µM (inactive)	> 100 µM (inactive)	28.2 µM (inactive)	92.7 µM (inactive)	93.1 µM (inactive)	> 100 µM (inactive)	> 100 µM (inactive)	> 100 µM (inactive)	> 100 µM (inactive)	–	29.8 µM (inactive)	> 100 µM (inactive)	> 100 µM (inactive)	> 100 µM (inactive)	> 100 µM (inactive)	> 100 µM (inactive)	> 100 µM (inactive)	> 100 µM (inactive)	> 100 µM (inactive)
Cc1cc2c3c(c1)S(=O)(=O)c1cc(Cl)ccc1N3CCC2	22 µM (inactive)	> 100 µM (inactive)	> 100 µM (inactive)	–	64.3 µM (inactive)	–	> 100 µM (inactive)	> 100 µM (inactive)	> 100 µM (inactive)	> 100 µM (inactive)	> 100 µM (inactive)	55.2 µM (inactive)	> 100 µM (inactive)	> 100 µM (inactive)	> 100 µM (inactive)	> 100 µM (inactive)	57.7 µM (inactive)	> 100 µM (inactive)	88.1 µM (inactive)	76.7 µM (inactive)
C=C(C1=CC(=O)C(C)(C)O1)[C@@H]1CC=C([C@@H]2CC[C@H]3[C@@]2(C)CC[C@H]2C(C)(C)C(=O)[C@H](OC(=O)CC(C)(O)CC(=O)O)C[C@]32C)[C@H](O)O1 (some centres undefined)	23.9 µM (inactive)	16.8 µM (inactive)	14.1 µM (inactive)	11.4 µM (inactive)	–	13.6 µM (inactive)	10.9 µM (inactive)	19 µM (inactive)	2.06 µM (inactive)	13 µM (inactive)	–	0.106 µM (active)	15.1 µM (inactive)	25.4 µM (inactive)	12.6 µM (inactive)	11.9 µM (inactive)	4.14 µM (inactive)	13.9 µM (inactive)	13.2 µM (inactive)	21.1 µM (inactive)
CC(C)CC(NC(=O)OC(C)(C)C)C(=O)NC(CC(=O)OCc1ccccc1)C(N)=O (stereo not drawn) (Boc-Leu-Asp(OBn)-NH2; configuration not given here)	58.9 µM (inactive)	> 100 µM (inactive)	> 100 µM (inactive)	> 100 µM (inactive)	> 100 µM (inactive)	> 100 µM (inactive)	> 100 µM (inactive)	> 100 µM (inactive)	> 100 µM (inactive)	> 100 µM (inactive)	> 100 µM (inactive)	> 100 µM (inactive)	> 100 µM (inactive)	> 100 µM (inactive)	> 100 µM (inactive)	> 100 µM (inactive)	–	> 100 µM (inactive)	> 100 µM (inactive)	–
CC(=O)OC[C@@]12C[C@H]3C(=O)C(C)(C)C[C@H]3[C@]1(C)[C@@H](OC(C)=O)[C@]1(O)[C@H]([C@@H](OC(=O)c3ccccc3)[C@@H](C)[C@H]1OC(C)=O)[C@H]2OC(C)=O	> 20 µM (inactive)	–	> 20 µM (inactive)	> 20 µM (inactive)	> 20 µM (inactive)	> 20 µM (inactive)	> 20 µM (inactive)	> 20 µM (inactive)	> 20 µM (inactive)	16.5 µM (inactive)	–	> 20 µM (inactive)	> 20 µM (inactive)	> 20 µM (inactive)	> 20 µM (inactive)	> 20 µM (inactive)	9.02 µM (inactive)	12.9 µM (inactive)	> 20 µM (inactive)	> 20 µM (inactive)
O=[N+]([O-])c1ccc(-n2nc3ccc4nonc4c3n2)cc1	13.3 µM (inactive)	> 100 µM (inactive)	94.8 µM (inactive)	28.8 µM (inactive)	9.08 µM (inactive)	23.7 µM (inactive)	34.3 µM (inactive)	56.1 µM (inactive)	22.7 µM (inactive)	44.8 µM (inactive)	46.2 µM (inactive)	–	> 100 µM (inactive)	25.4 µM (inactive)	> 100 µM (inactive)	71.4 µM (inactive)	> 100 µM (inactive)	> 100 µM (inactive)	74.3 µM (inactive)	16.6 µM (inactive)
CCCC(=O)Nc1cc(/C=C/C(=O)N2CC(CCl)c3ccc([N+](=O)[O-])cc32)n(C)c1 (centres undefined)	26.8 µM (inactive)	21.1 µM (inactive)	19.5 µM (inactive)	28.8 µM (inactive)	> 100 µM (inactive)	> 100 µM (inactive)	43.7 µM (inactive)	30.7 µM (inactive)	4.07 µM (inactive)	43.4 µM (inactive)	> 100 µM (inactive)	> 100 µM (inactive)	> 100 µM (inactive)	> 100 µM (inactive)	> 100 µM (inactive)	> 100 µM (inactive)	–	> 100 µM (inactive)	> 100 µM (inactive)	–
O=c1[nH]c2ccccc2c2oc(-c3ccccc3)nc12	25.1 µM (inactive)	> 100 µM (inactive)	50.5 µM (inactive)	61.5 µM (inactive)	60.7 µM (inactive)	65.8 µM (inactive)	21.3 µM (inactive)	> 100 µM (inactive)	31.2 µM (inactive)	16.7 µM (inactive)	–	20.4 µM (inactive)	18.4 µM (inactive)	26.1 µM (inactive)	15.9 µM (inactive)	> 100 µM (inactive)	26.6 µM (inactive)	20.2 µM (inactive)	> 100 µM (inactive)	15.8 µM (inactive)
